Assay results as given in patent US20230124862A1, “BISMUTH THIOL COMPOUNDS AND COMPOSITIONS AND METHODS OF TREATING MICROBIAL CO-INFECTIONS” (Microbion Corporation, priority 2020, published 2023).
≈ marks a conversion by molar mass, not a printed value. Where two headings read alike, the source gives them in different places.

Columns and labels:
Candida krusei = assay: Antifungal broth microdilution (Example 13); type: cell-based; details: for MIC: Pichia kudriavzevii
[1] = system: P. aeruginosa and A. baumannii; assay: Broth microdilution MIC (Example 11); type: cell-based, Pseudomonas aeruginosa, Acinetobacter baumannii; details: read-out: MIC values
[2] = system: Pseudomonas aeruginosa strain PA01; assay: Bacterial killing curves with and without CF patient sputum; type: cell-based; details: for bactericidal activity: 0.1 μg/mL
S. aureus ATCC 29213 [3] = details: cited from earlier work; for Expected MIC: goal (acceptable range): control strain ATCC 29213
[4] = system: Gram-negative organisms (P. aeruginosa, E. coli, A. baumannii, H. influenzae); details: cited from earlier work
in vivo = details: rat, rats, lung-deposited dose, read-out: acute no observed adverse effect level (NOAEL)
Description: Based on rat tox and PK data to date, an acute no observed adverse effect level (NOAEL) in rats is approximately 100 μg/kg lung-deposited dose. The NOAEL was established through clinical observation during and after treatment, gross necropsy, lung lavage analysis, clinical chemistry, and hematology results. […] Furthermore, lung surface fluid concentrations are approximately 30-fold higher than the corresponding total lung tissue concentrations for BisEDT which appears to persist primarily on the lumen.

Pseudomonas aeruginosa [5] = details: P. aeruginosa ATCC 27853; CLSI established QC range; cited from earlier work
Pseudomonas aeruginosa [6] = type: in vivo, Sprague Dawley rats; details: rats, single dose of BisEDT, by Day 5
Description: The efficacy of BisEDT in reducing pulmonary bacterial burden associated with pulmonary infection in a rat model of pulmonary Pseudomonas aeruginosa infection was evaluated. The results follow.
Conclusion: Animals were divided into four experiment inhalational treatment groups: 1) Group 1, a negative control group treated with saline on Days 0, 2, and 4; 2) Group 2, a positive control group treated with tobramycin (target of 20 mg/kg, BID, Days 1-4); 3) Group 3, BisEDT (target of 0.1 mg/kg, QD, Days 0, 2, 4); and Group 4, BisEDT (target of 0.25 mg/kg, once, Day −1). Animals were further divided into two cohorts, separated by one day, to accommodate the challenge and treatment of the number of animals. All animals were exposed per protocol except Group 1 and 3, cohort 2. These animals were exposed on Days 0, 1, and 4 instead of on Days 0, 2, 4.
An in vivo efficacy study was designed to assess the efficacy of inhaled BisEDT in a chronic model of P. aeruginosa pulmonary infection. […] Animals were euthanized at Study Day 3 and 5 and assessed for level of pulmonary bacterial burden. […]

P. aeruginosa [7] = details: P. aeruginosa isolate 103; CLSI QC range in parenthesis; cited from earlier work
Escherichia coli = details: CLSI established QC range, cited from earlier work
P. aeruginosa [8] = details: P. aeruginosa isolate 103; CLSI QC range in parenthesis; cited from earlier work; remark: listed apart in the source
S. aureus ATCC 29213 [9] = details: CLSI established QC range; cited from earlier work
P. aeruginosa [10] = assay: Checkerboard FIC/FICI assay; type: cell-based, Pseudomonas aeruginosa; details: during FIC testing
Pseudomonas aeruginosa [11] = assay: Broth microdilution MIC (Example 12); type: cell-based
Klebsiella pneumoniae [12] = assay: Broth microdilution MIC (Example 12); type: cell-based
Klebsiella pneumoniae [13] = details: K. pneumoniae ATCC BAA-1705; CLSI established QC range; cited from earlier work

Work on `CC(S)C(C)S.[Bi]` (centres unmarked) [BisBDT, bismuth-2,3-butanedithiol] yielded an MIC 24 hr (Candida krusei; C. krusei ATCC 6258, first of two values x/y (footnote b not given, matches MIC2 of Table 107)) of 0.5 µg/mL, an MIC 24 hr (Candida krusei; C. krusei ATCC 6258, second of two values x/y (footnote b not given, matches MIC0 of Table 107)) of 1 µg/mL and an MIC 48 hr (Candida krusei; C. krusei ATCC 6258, 48 hr, first of two values x/y (footnote b not given, presumably MIC2)) of 1 µg/mL. The MIC (Candida krusei; C. krusei MMX 7125, Susceptible, 50% inhibition, read-out: MIC2) was 0.5 µg/mL, the MIC (Candida krusei; C. krusei MMX 7125, Susceptible, complete inhibition, read-out: MIC0) was 1 µg/mL and the MIC (Candida krusei; C. krusei MMX 7141, Susceptible, 50% inhibition, read-out: MIC2) was 1 µg/mL. For the same molecule, the MIC (Candida krusei; C. krusei MMX 7141, Susceptible, complete inhibition, read-out: MIC0) was 2 µg/mL, the MIC (Candida krusei; C. krusei MMX 7155, Susceptible, 50% inhibition, read-out: MIC2) was 0.5 µg/mL and the MIC (Candida krusei; C. krusei MMX 7155, Susceptible, complete inhibition, read-out: MIC0) was 1 µg/mL. The MIC (Candida krusei; C. krusei MMX 7563, Susceptible, 50% inhibition, read-out: MIC2) was 0.5 µg/mL, the MIC (Candida krusei; C. krusei MMX 7563, Susceptible, complete inhibition, read-out: MIC0) was 1 µg/mL and the MIC (Candida krusei; C. krusei MMX 9878, MICA-I, VORI-I, 50% inhibition, read-out: MIC2) was 0.5 µg/mL. For the same molecule, the MIC (Candida krusei; C. krusei MMX 9878, MICA-I, VORI-I, complete inhibition, read-out: MIC0) was 1 µg/mL, the MIC (Candida krusei; […], complete inhibition, read-out: MIC0) was 1 µg/mL and the MIC (Candida krusei; read-out: MIC2) was 0.5 µg/mL. The MIC [1] was 0.5 to 2 µg/mL, the bactericidal activity [2] was “not bactericidal” and the “more surviving in cultures with sputum” value ([2]; 4 μg/mL, 3-6 hours) was 0.5-0.8 log CFU/mL. For the same molecule, the killing without sputum ([2]; 4 μg/mL, over the 6 hour assay) was “about 1 log”, the “time to sterilization below the limit of detection” value ([2]; 20 μg/mL, with and without sputum) was at most 5 h and the “Expected MIC: goal (acceptable range)” value (S. aureus ATCC 29213 [3]) was 0.25 (0.12-0.5) mcg/mL.

In the case of `C1C[S][Bi]([S]CC[S][Bi]2[S]CC[S]2)[S]1` [BisEDT, Bismuth-1,2-ethanedithiol], the “CLSI acceptable MIC QC range” value ([4]; H. Influenzae ATCC 49247) is listed as “(0.015-0.06) μg/mL”, the “CLSI acceptable MIC QC range” value ([4]; P. aeruginosa ATCC 27853) is listed as 0.5 to 4 µg/mL and the NOAEL (in vivo) is listed as about 0.1 mg/kg. For the same molecule, the “QC range of MIC” value (Pseudomonas aeruginosa [5]) was “(0.5-4) μg/mL”, the “efficacy vs tobramycin positive control group” value (Pseudomonas aeruginosa [6]) was “not significantly different” and the “CLSI QC range of MIC” value (P. aeruginosa [7]) was “(0.5-4)^2 μg/mL”. The bactericidal activity [2] was “not bactericidal”, the “QC range of MIC” value (Escherichia coli; E. coli ATCC 25922) was “(0.5-4)^1 μg/mL” and the “QC Range 24 hr” value (S. aureus ATCC 29213 [3]; S. aureus ATCC 29213, established QC range, 24 hr) was 0.12-1. For the same molecule, the “Expected MIC: goal (acceptable range)” value (S. aureus ATCC 29213 [3]) was 0.25 to 0.5 µg/mL, the “CLSI QC range of MIC” value (P. aeruginosa [8]) was “(0.5-4) μg/mL” and the “QC range of MIC” value (S. aureus ATCC 29213 [9]) was “(0.12-1) μg/mL”.

`C[C@@H](O)[C@H]1C(=O)N2C(C(=O)O)=C(S[C@@H]3CN[C@H](C(=O)N(C)C)C3)[C@H](C)[C@H]12` [MEM] showed an MIC (P. aeruginosa [10]; isolate 103 (ATCC 25922), each agent tested alone for QC, one replicate) of 1 µg/mL, an MIC (P. aeruginosa [10]; isolate 6322) of 16 µg/mL and an MIC (P. aeruginosa [10]; isolate 6977) of 8 µg/mL. The MIC (P. aeruginosa [10]; isolate 7745) was 16 µg/mL, the MIC (P. aeruginosa [10]; isolate 8798) was 32 µg/mL and the “QC range of MIC” value (Pseudomonas aeruginosa [5]) was “(0.12-1) μg/mL”. It also gave an MIC (Pseudomonas aeruginosa [11]; P. aeruginosa ATCC 27853, ATCC QC organism (Table 102)) of 0.25 µg/mL (≈ 0.652 µM), an MIC (Pseudomonas aeruginosa [11]; P. aeruginosa CDC 230, VIM/OXA) of over 8 µg/mL and an MIC (Pseudomonas aeruginosa [11]; P. aeruginosa CDC 231, KPC/OXA) of over 8 µg/mL. For the same molecule, the MIC (Pseudomonas aeruginosa [11]; P. aeruginosa CDC 241, IMP/OXA) was over 8 µg/mL, the MIC (Pseudomonas aeruginosa [11]; P. aeruginosa CDC 246, NDM/OXA) was over 8 µg/mL and the MIC (Pseudomonas aeruginosa [11]; P. aeruginosa CDC 250, NDM/OXA) was over 8 µg/mL. The MIC (Pseudomonas aeruginosa [11]; P. aeruginosa CDC 356, KPC) was over 8 µg/mL, the MIC (Pseudomonas aeruginosa [11]; P. aeruginosa CDC 439, IMP) was over 8 µg/mL and the MIC (Pseudomonas aeruginosa [11]; P. aeruginosa CDC 444, VIM) was over 8 µg/mL. For the same molecule, the MIC (Pseudomonas aeruginosa [11]; P. aeruginosa CDC 457, VIM) was over 8 µg/mL, the MIC (Pseudomonas aeruginosa [11]; P. aeruginosa CDC 516, KPC/AmpC) was over 8 µg/mL and the MIC (Pseudomonas aeruginosa [11]; P. aeruginosa CDC 518, KPC/AmpC) was over 8 µg/mL. For the same molecule, the “CLSI QC range of MIC” value (P. aeruginosa [7]) was “(0.12-1) μg/mL”, the “QC range of MIC” value (Escherichia coli; E. coli ATCC 25922) was “(0.008-0.06) μg/mL” and the “QC range of MIC” value (Escherichia coli; E. coli ATCC 35218) was “(0.008-0.06) μg/mL”. It also gave an MIC (Klebsiella pneumoniae [12]; K. pneumoniae ATCC BAA-1705, ATCC QC organism (Table 102)) of 8 µg/mL (≈ 20.9 µM), an MIC (Klebsiella pneumoniae [12]; K. pneumoniae ATCC BAA-1705, ESBL/KPC) of 8 µg/mL (≈ 20.9 µM) and an MIC (Klebsiella pneumoniae [12]; K. pneumoniae CDC 112, KPC) of over 8 µg/mL. For the same molecule, the MIC (Klebsiella pneumoniae [12]; K. pneumoniae CDC 113, ESBL/KPC) was over 8 µg/mL, the MIC (Klebsiella pneumoniae [12]; K. pneumoniae CDC 115, ESBL/KPC) was over 8 µg/mL and the MIC (Klebsiella pneumoniae [12]; K. pneumoniae CDC 120, ESBL/KPC) was over 8 µg/mL. It also gave an MIC (Klebsiella pneumoniae [12]; K. pneumoniae CDC 126, ESBL/KPC) of 4 µg/mL (≈ 10.4 µM), an MIC (Klebsiella pneumoniae [12]; K. pneumoniae CDC 129, ESBL/KPC) of 8 µg/mL (≈ 20.9 µM) and an MIC (Klebsiella pneumoniae [12]; K. pneumoniae CDC 135, ESBL/VIM) of 1 µg/mL (≈ 2.61 µM). It also gave an MIC (Klebsiella pneumoniae [12]; K. pneumoniae CDC 138, ESBL/NDM) of over 8 µg/mL, an MIC (Klebsiella pneumoniae [12]; K. pneumoniae CDC 158, ESBL/NDM/OXA) of over 8 µg/mL and an MIC (Klebsiella pneumoniae [12]; K. pneumoniae MMX 9029, ESBL) of 0.015 µg/mL (≈ 0.0391 µM). For the same molecule, the “CLSI QC range of MIC” value (P. aeruginosa [8]) was “(0.12-1) μg/mL” and the “QC range of MIC” value (Klebsiella pneumoniae [13]) was “(8-64) μg/mL”.
